Reference: PubChem BioAssay AID248 (DTP/NCI, 2004)
“And” between values parts separate entries of the source, which are not always exact repeats. Equal entries are not always repeated. Inconclusive results and toxic doses are left out.

Test system: L1210 leukemia ip in BDF1 mice, survival T/C
Experiment: NCI In Vivo Anticancer Drug Screen. Data for tumor model L1210 Leukemia (intraperitoneal) in B6D2F1 (BDF1) mice
Details: endpoint: mean survival time, higher = longer survival
Method in brief: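 Survival endpoint. Drug-treated group vs vehicle group, expressed as T divided by C. Tumor passaged by transplantation.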

[1] = dose: 100.0 mg/kg/injection, schedule: Q01DX009 (ip), vehicle: saline with Tween-80
[2] = dose: 100.0 mg/kg/injection, schedule: Q04DX003 (ip), vehicle: saline with Tween-80
[3] = dose: 200.0 mg/kg/injection, schedule: Q01DX009 (ip), vehicle: saline with Tween-80
[4] = dose: 200.0 mg/kg/injection, schedule: Q04DX003 (ip), vehicle: saline with Tween-80
[5] = dose: 400.0 mg/kg/injection, schedule: Q01DX009 (ip), vehicle: saline with Tween-80
[6] = dose: 400.0 mg/kg/injection, schedule: Q04DX003 (ip), vehicle: saline with Tween-80
[7] = dose: 100.0 mg/kg/injection, schedule: Q01DX009 (ip), vehicle: Klucel (hydroxypropylcellulose) (HPC)
[8] = dose: 200.0 mg/kg/injection, schedule: Q01DX009 (ip), vehicle: Klucel (hydroxypropylcellulose) (HPC)
[9] = dose: 400.0 mg/kg/injection, schedule: Q01DX009 (ip), vehicle: Klucel (hydroxypropylcellulose) (HPC)
[10] = dose: 100.0 mg/kg/injection, schedule: Q01DX001 (ip), vehicle: saline
[11] = dose: 200.0 mg/kg/injection, schedule: Q01DX001 (ip), vehicle: saline
[12] = dose: 400.0 mg/kg/injection, schedule: Q01DX001 (ip), vehicle: saline
[13] = dose: 100.0 mg/kg/injection, schedule: Q01DX001 (ip), vehicle: carboxymethylcellulose (CMC)
[14] = dose: 100.0 mg/kg/injection, schedule: Q04DX003 (ip), vehicle: saline
[15] = dose: 200.0 mg/kg/injection, schedule: Q01DX001 (ip), vehicle: carboxymethylcellulose (CMC)
[16] = dose: 200.0 mg/kg/injection, schedule: Q04DX003 (ip), vehicle: saline
[17] = dose: 400.0 mg/kg/injection, schedule: Q04DX003 (ip), vehicle: saline

## CCN(CCCCO)CCc1c[nH]c2ccc(OC)cc12
dose: 4.68 mg/kg/injection, schedule: Q01DX009 (ip), vehicle: saline
  T/C: 98 % of control
dose: 9.37 mg/kg/injection, schedule: Q01DX009 (ip), vehicle: saline
  T/C: 106 % of control
dose: 18.75 mg/kg/injection, schedule: Q01DX009 (ip), vehicle: saline
  T/C: 96 % of control
dose: 18.75 mg/kg/injection, schedule: Q04DX003 (ip), vehicle: saline
  T/C: 112 % of control
dose: 37.5 mg/kg/injection, schedule: Q01DX009 (ip), vehicle: saline
  T/C: 104 % of control
dose: 37.5 mg/kg/injection, schedule: Q04DX003 (ip), vehicle: saline
  T/C: 101 % of control
dose: 75.0 mg/kg/injection, schedule: Q01DX009 (ip), vehicle: saline
  T/C: 95 % of control
dose: 75.0 mg/kg/injection, schedule: Q04DX003 (ip), vehicle: saline
  T/C: 106 % of control
dose: 150.0 mg/kg/injection, schedule: Q01DX009 (ip), vehicle: saline
  T/C: 109 % of control

## CC1CC=CCC1COC(=O)C(=O)OCC1CC=CCC1C (stereo not given)
[1]
  T/C: 98 % of control
[2]
  T/C: 101 % of control
[3]
  T/C: 95 % of control
[4]
  T/C: 97 % of control
[5]
  T/C: 95 % of control
[6]
  T/C: 95 % of control

## Cc1ccc(NC(=S)NCCO)cc1C
[2]
  T/C: 98 % of control
[4]
  T/C: 98 % of control
[6]
  T/C: 97 % of control

## CCOC(=O)Nc1cccc(C)c1C
[7]
  T/C: 100 % of control
[8]
  T/C: 107 % of control
[9]
  T/C: 104 % of control

## C[N+](C)(C)Cc1ncccc1OC(=O)N(c1ccccc1)c1ccccc1
dose: 25.0 mg/kg/injection, schedule: Q04DX003 (ip), vehicle: saline with Tween-80
  T/C: 96 % of control
dose: 50.0 mg/kg/injection, schedule: Q04DX003 (ip), vehicle: saline with Tween-80
  T/C: 96 % of control
[2]
  T/C: 96 % of control and 101 % of control

## O=C(Nc1cccc(C2=NCCN2)c1)c1ccc(N=Nc2ccc(C(=O)Nc3cccc(C4=NCCN4)c3)cc2)cc1
dose: 93.0 mg/kg/injection, schedule: Q01DX Z (ip), vehicle: water
  T/C: 93 % of control
dose: 186.0 mg/kg/injection, schedule: Q01DX Z (ip), vehicle: water
  T/C: 100 % of control

## Cc1ccc2c(c1)C(=NCCCN=C1C(=O)Nc3ccc(C)cc31)C(=O)N2
[1]
  T/C: 96 % of control
[2]
  T/C: 93 % of control
[3]
  T/C: 91 % of control
[4]
  T/C: 102 % of control
[5]
  T/C: 98 % of control
[6]
  T/C: 98 % of control

## CNC(=S)Nc1ccccc1
dose: 100.0 mg/kg/injection, schedule: Q04DX003 (ip), vehicle: carboxymethylcellulose (CMC)
  T/C: 95 % of control
dose: 200.0 mg/kg/injection, schedule: Q04DX003 (ip), vehicle: carboxymethylcellulose (CMC)
  T/C: 96 % of control

## CCCCC(=O)N/N=C\c1cccc(OCc2ccccc2)c1
[10]
  T/C: 107 % of control
[11]
  T/C: 102 % of control
[12]
  T/C: 109 % of control

## C[n+]1c(/C=C/c2ccc(O)c3ncccc23)[se]c2ccccc21
[13]
  T/C: 95 % of control
[14]
  T/C: 108 % of control
[15]
  T/C: 100 % of control
[16]
  T/C: 110 % of control
dose: 400.0 mg/kg/injection, schedule: Q01DX001 (ip), vehicle: carboxymethylcellulose (CMC)
  T/C: 105 % of control
[17]
  T/C: 105 % of control

## CC1=C[S+](c2ccccc2)c2cccc3cc4ccccc4c1c23 (stereo not given)
dose: 2.5 mg/kg/injection, schedule: Q01DX009 (ip), vehicle: saline with Tween-80
  T/C: 119 % of control

## CC(=O)NS(=O)(=O)c1ccc(N=Cc2ccccc2O)cc1
[7]
  T/C: 101 % of control
[8]
  T/C: 94 % of control
[9]
  T/C: 100 % of control

## CCCCCCCNC(=O)Nc1ccc(Cl)c(Cl)c1
[10]
  T/C: 95 % of control
[11]
  T/C: 90 % of control
[12]
  T/C: 97 % of control

## COc1cc(CCN)ccc1OCc1ccccc1
dose: 25.0 mg/kg/injection, schedule: Q04DX003 (ip), vehicle: Klucel (hydroxypropylcellulose) (HPC)
  T/C: 97 % of control
dose: 50.0 mg/kg/injection, schedule: Q04DX003 (ip), vehicle: Klucel (hydroxypropylcellulose) (HPC)
  T/C: 101 % of control
dose: 100.0 mg/kg/injection, schedule: Q01DX001 (ip), vehicle: Klucel (hydroxypropylcellulose) (HPC)
  T/C: 96 % of control
dose: 100.0 mg/kg/injection, schedule: Q04DX003 (ip), vehicle: Klucel (hydroxypropylcellulose) (HPC)
  T/C: 104 % of control and 105 % of control
dose: 200.0 mg/kg/injection, schedule: Q01DX001 (ip), vehicle: Klucel (hydroxypropylcellulose) (HPC)
  T/C: 94 % of control

## O=C1c2cccc3cc([N+](=O)[O-])cc(c23)C(=O)N1O
[10]
  T/C: 101 % of control
[11]
  T/C: 97 % of control
[12]
  T/C: 107 % of control

## N[n+]1cccc2ccccc21
[10]
  T/C: 93 % of control
[14]
  T/C: 108 % of control
[11]
  T/C: 108 % of control
[16]
  T/C: 110 % of control

## C#CCNc1ccc(C(=O)OCC)cc1
dose: 100.0 mg/kg/injection, schedule: Q04DX002 (ip), vehicle: gum acacia
  T/C: 99 % of control
dose: 200.0 mg/kg/injection, schedule: Q04DX002 (ip), vehicle: gum acacia
  T/C: 108 % of control
dose: 400.0 mg/kg/injection, schedule: Q04DX002 (ip), vehicle: gum acacia
  T/C: 92 % of control

## C[S+](C)Cc1ccc(C(=O)Oc2ccc([N+](=O)[O-])cc2)cc1
dose: 25.0 mg/kg/injection, schedule: Q01DX009 (ip), vehicle: saline
  T/C: 100 % of control
dose: 25.0 mg/kg/injection, schedule: Q04DX003 (ip), vehicle: saline
  T/C: 97 % of control
dose: 50.0 mg/kg/injection, schedule: Q01DX009 (ip), vehicle: saline
  T/C: 98 % of control
dose: 50.0 mg/kg/injection, schedule: Q04DX003 (ip), vehicle: saline
  T/C: 100 % of control
dose: 100.0 mg/kg/injection, schedule: Q01DX009 (ip), vehicle: saline
  T/C: 96 % of control and 102 % of control
[14]
  T/C: 100 % of control and 101 % of control
dose: 200.0 mg/kg/injection, schedule: Q01DX009 (ip), vehicle: saline
  T/C: 87 % of control

## NNc1ncnc2c1ncn2C1OC(CO)C(O)C1O (stereo not given)
dose: 1.0 mg/kg/injection, schedule: Q01DX015 (ip), vehicle: carboxymethylcellulose (CMC)
  T/C: 106 % of control
dose: 3.0 mg/kg/injection, schedule: Q01DX015 (ip), vehicle: carboxymethylcellulose (CMC)
  T/C: 109 % of control
dose: 6.0 mg/kg/injection, schedule: Q01DX015 (ip), vehicle: carboxymethylcellulose (CMC)
  T/C: 106 % of control
dose: 12.0 mg/kg/injection, schedule: Q01DX015 (ip), vehicle: carboxymethylcellulose (CMC)
  T/C: 97 % of control
dose: 20.0 mg/kg/injection, schedule: Q01DX015 (ip), vehicle: carboxymethylcellulose (CMC)
  T/C: 106 % of control
dose: 25.0 mg/kg/injection, schedule: Q01DX015 (ip), vehicle: carboxymethylcellulose (CMC)
  T/C: 118 % of control
dose: 30.0 mg/kg/injection, schedule: Q01DX015 (ip), vehicle: carboxymethylcellulose (CMC)
  T/C: 108 % of control
dose: 44.0 mg/kg/injection, schedule: Q01DX015 (ip), vehicle: carboxymethylcellulose (CMC)
  T/C: 122 % of control
dose: 50.0 mg/kg/injection, schedule: Q01DX001 (ip), vehicle: carboxymethylcellulose (CMC)
  T/C: 108 % of control
dose: 50.0 mg/kg/injection, schedule: Q01DX Z (ip), vehicle: other
  T/C: 122 % of control
dose: 75.0 mg/kg/injection, schedule: Q01DX Z (ip), vehicle: other
  T/C: 121 % of control
[13]
  T/C: 116 % of control
dose: 100.0 mg/kg/injection, schedule: Q01DX015 (ip), vehicle: carboxymethylcellulose (CMC)
  T/C: 124 % of control
dose: 100.0 mg/kg/injection, schedule: Q01DX Z (ip), vehicle: other
  T/C: 152 % of control
dose: 150.0 mg/kg/injection, schedule: Q01DX015 (ip), vehicle: carboxymethylcellulose (CMC)
  T/C: 86 % of control
dose: 150.0 mg/kg/injection, schedule: Q01DX Z (ip), vehicle: other
  T/C: 95 % of control
dose: 186.75 mg/kg/injection, schedule: Q01DX015 (ip), vehicle: gum acacia
  T/C: 83 % of control
[15]
  T/C: 111 % of control
dose: 220.0 mg/kg/injection, schedule: Q01DX015 (ip), vehicle: carboxymethylcellulose (CMC)
  T/C: 95 % of control

## COc1ccc(C=NCCN=Cc2ccc(OC)c(OC)c2)cc1OC
[10]
  T/C: 100 % of control
[1]
  T/C: 101 % of control
[14]
  T/C: 92 % of control
[11]
  T/C: 104 % of control
[3]
  T/C: 95 % of control
[16]
  T/C: 87 % of control
[12]
  T/C: 102 % of control
[5]
  T/C: 95 % of control
[17]
  T/C: 92 % of control
